Some test systems named below: SN12C; SNB-75; HCT-15; NCI-H23; UACC-62; U-251; SF-295; SF-268; 786-0; NCI-H522; UACC-257; RPMI-8226; LXFL 529; SW-620; OVCAR-8; HL-60; CCRF-CEM; Hs-578T; T47D; A498.
Test in all cases: growth of human tumour cells (NCI), 48 h

Structures are written as SMILES.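 Dose response: 5 concentrations. Exposure: 48 h. Format: 96-well plates. Endpoint: linear interpolation; highest concentration if not reached. GI50 marks 50% less growth.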 Activity calls are given as the source filed them. No stated cut-off is given here; in the data, active = GI50 up to about 1.1 µM and inactive = higher.

`Cn1c(=O)c(C2c3ccccc3Oc3c2c(=O)n(C)c2ccccc32)c(O)c2ccccc21` (stereo not drawn): the GI50 was 46.7 µM (inactive) with SN12C; 40.9 µM (inactive) with SNB-75; 32.4 µM in the assay on HCT-15; 40.6 µM (inactive) in the assay with NCI-H23; 44.9 µM (inactive) with UACC-62; 41.2 µM (inactive) in the assay with U-251. For the same compound, the GI50 was 54.5 µM (inactive) with SF-295; 66.4 µM (inactive) in the assay on SF-268; 27.2 µM (inactive) in the assay on 786-0; 24.3 µM (inactive) in the assay on NCI-H522; 24.1 µM (inactive) in the assay with UACC-257; 38.5 µM (inactive) with RPMI-8226. For the same compound, the GI50 in the assay on LXFL 529 is 47.9 µM (inactive); with SW-620, 43.9 µM (inactive); with OVCAR-8, > 100 µM (inactive); with HL-60, 30.1 µM (inactive).
`N#CC1([N+](=O)[O-])C=C1c1ccccc1` (stereo not drawn): the GI50 is > 100 µM (inactive) in the assay on SN12C; 36.7 µM in the assay on HCT-15; > 100 µM (inactive) with NCI-H23; 20.9 µM (inactive) in the assay on UACC-62; > 100 µM (inactive) in the assay with U-251; 21.1 µM (inactive) in the assay with CCRF-CEM. Besides, the GI50 in the assay with SF-295 was > 100 µM (inactive); with SF-268, 53.7 µM (inactive); with 786-0, 28.8 µM (inactive); in the assay with NCI-H522 it was 23.4 µM (inactive); in the assay with UACC-257, 78 µM (inactive); with RPMI-8226, 19.5 µM (inactive). In addition, the GI50 in the assay with LXFL 529 was 32.1 µM (inactive); with SW-620, 19.9 µM (inactive); with OVCAR-8, > 100 µM (inactive); in the assay on HL-60 it was 23.3 µM (inactive).
As to `CC(C)(C)c1cc(CCC(=O)Nc2ccc(Cl)cc2Cl)nc(N)n1`, the GI50 was > 100 µM (inactive) in the assay with SN12C; > 100 µM in the assay with HCT-15; > 100 µM (inactive) in the assay with NCI-H23; > 100 µM (inactive) in the assay with UACC-62; > 100 µM (inactive) with U-251; > 100 µM (inactive) in the assay with CCRF-CEM. Besides, the GI50 in the assay with SF-295, with SF-268, in the assay on 786-0, with UACC-257, in the assay with LXFL 529 and in the assay with SW-620 was > 100 µM (inactive) in each case. The GI50 in the assay on OVCAR-8 and with HL-60 was > 100 µM (inactive) in each case.
Regarding `CC(=O)O[C@H]1CC[C@@]2(C)C(=CC[C@H]3[C@@H]4C[C@H](N5CCOCC5)[C@H](OC(C)=O)[C@@]4(C)CC[C@@H]32)C1`, the GI50 in the assay on SN12C was > 100 µM (inactive); with SNB-75, 71.6 µM (inactive); in the assay on HCT-15, > 100 µM; with NCI-H23, > 100 µM (inactive); in the assay with UACC-62, > 100 µM (inactive); with U-251 it was > 100 µM (inactive). The GI50 with CCRF-CEM, in the assay with SF-295, with Hs-578T, in the assay with T47D, in the assay on SF-268 and in the assay with A498 was > 100 µM (inactive) each time. Also, the GI50 in the assay on 786-0 is > 100 µM (inactive); in the assay on NCI-H522, > 100 µM (inactive); in the assay with UACC-257, > 100 µM (inactive); in the assay with RPMI-8226 it was 92.5 µM (inactive); in the assay with SW-620 it was > 100 µM (inactive); in the assay with OVCAR-8, > 100 µM (inactive). The GI50 in the assay with HL-60 was 54.2 µM (inactive).
On to `CC(C)Oc1cccc(N2C(CCc3c[nH]c4ccc(Br)cc34)=NS(=O)(=O)c3cnccc32)c1`, for which the GI50 in the assay on SN12C is 69 µM (inactive); in the assay on SNB-75, 48 µM (inactive); in the assay with HCT-15 it was 30.8 µM; with NCI-H23, 61.9 µM (inactive); in the assay on UACC-62, 33.3 µM (inactive); with U-251, 64.6 µM (inactive). Also, the GI50 in the assay on CCRF-CEM is 95.5 µM (inactive); in the assay on SF-295, 25.7 µM (inactive); in the assay on Hs-578T, 64.6 µM (inactive); in the assay on T47D, 21.2 µM (inactive); in the assay with SF-268, 69.8 µM (inactive); in the assay on A498, 35.4 µM (inactive). Also, the GI50 in the assay on 786-0 was 45 µM (inactive); with NCI-H522, 27.9 µM (inactive); in the assay with UACC-257, 50.8 µM (inactive); in the assay with RPMI-8226, 24 µM (inactive); in the assay with SW-620 it was 72.3 µM (inactive); in the assay with OVCAR-8 it was 51.2 µM (inactive). Moreover, in the assay with HL-60, the GI50 is 23.3 µM (inactive).
On to `CCCCCCCCCc1cc(=O)c2ccc(OCc3ccccc3)cc2o1`, for which the GI50 in the assay with SN12C was > 100 µM (inactive); in the assay on SNB-75, 30.8 µM (inactive); in the assay with HCT-15 it was > 100 µM; with NCI-H23 it was > 100 µM (inactive); in the assay with UACC-62 it was > 100 µM (inactive); in the assay with U-251, > 100 µM (inactive). Further, the GI50 with CCRF-CEM was 65.2 µM (inactive); in the assay on SF-295, > 100 µM (inactive); in the assay with SF-268 it was > 100 µM (inactive); in the assay on 786-0, > 100 µM (inactive); in the assay on NCI-H522, > 100 µM (inactive); in the assay on UACC-257, > 100 µM (inactive). Further, the GI50 with LXFL 529 is 73.8 µM (inactive); with SW-620 it was > 100 µM (inactive); in the assay with OVCAR-8 it was > 100 µM (inactive); in the assay with HL-60, 14.5 µM (inactive).
With `CCOC(=O)C1=c2[nH]c3cccc4cccc(c43)n2C(=O)CC1c1ccccc1` (stereo not drawn), the GI50 is > 100 µM (inactive) in the assay on SN12C; > 100 µM (inactive) with SNB-75; > 100 µM with HCT-15; > 100 µM (inactive) in the assay with NCI-H23; > 100 µM (inactive) in the assay on UACC-62; > 100 µM (inactive) in the assay on U-251. In addition, the GI50 with CCRF-CEM, with SF-295, in the assay on Hs-578T, with T47D, in the assay on SF-268 and in the assay with A498 was > 100 µM (inactive) in each case. The GI50 with 786-0, with NCI-H522, in the assay on UACC-257, with RPMI-8226, in the assay with SW-620 and in the assay with OVCAR-8 was > 100 µM (inactive) throughout. Further, in the assay with HL-60, the GI50 was 95.5 µM (inactive).
Take `CCOC(=O)C1=C(C)NC(C)=C(C(=O)OCCNC(=O)c2ccc(N=[N+]=[N-])cc2)C1c1ccccc1C(F)(F)F` (stereo not drawn) [AZIDOPINE]: the GI50 in the assay on SN12C was 15.1 µM (inactive); with SNB-75, > 10 µM (inactive); with HCT-15, 8.45 µM; with NCI-H23, 11.3 µM (inactive); in the assay with UACC-62, 11.2 µM (inactive); in the assay on U-251, 10.9 µM (inactive). Besides, the GI50 in the assay on CCRF-CEM is 6.55 µM (inactive); in the assay on SF-295, 8.61 µM (inactive); in the assay on Hs-578T, 12.7 µM (inactive); with T47D it was 8.93 µM (inactive); in the assay on SF-268, 10.3 µM (inactive); with A498, > 10 µM (inactive). Moreover, the GI50 is 13.3 µM (inactive) in the assay on 786-0; 8.39 µM (inactive) in the assay with NCI-H522; 11.5 µM (inactive) in the assay with UACC-257; 4.37 µM (inactive) in the assay with RPMI-8226; 15.3 µM (inactive) in the assay on SW-620; 14.8 µM (inactive) with OVCAR-8. Moreover, in the assay on HL-60, the GI50 was 7.66 µM (inactive).

The values are drawn from ChEMBL document CHEMBL1201862, “PubChem BioAssay data set” (2004).
